Target: T1, β-secretase (BACE) (Homo sapiens, UniProt P56817)
T1 construct: purchased Panvera
Experiment: BACE FS1 % Inhibition Assay
Assay type: biochemical
How it was run: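 Percent inhibition per compound concentration was referenced to vehicle-treated enzyme and no-enzyme wells. Enzyme at a 4 μg/mL working stock plus compound was mixed for 20 min at room temperature before the FS1 substrate (300 μg/mL working stock) was added for a 1 h room-temperature reaction.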

T1 sequence (P56817 46-501): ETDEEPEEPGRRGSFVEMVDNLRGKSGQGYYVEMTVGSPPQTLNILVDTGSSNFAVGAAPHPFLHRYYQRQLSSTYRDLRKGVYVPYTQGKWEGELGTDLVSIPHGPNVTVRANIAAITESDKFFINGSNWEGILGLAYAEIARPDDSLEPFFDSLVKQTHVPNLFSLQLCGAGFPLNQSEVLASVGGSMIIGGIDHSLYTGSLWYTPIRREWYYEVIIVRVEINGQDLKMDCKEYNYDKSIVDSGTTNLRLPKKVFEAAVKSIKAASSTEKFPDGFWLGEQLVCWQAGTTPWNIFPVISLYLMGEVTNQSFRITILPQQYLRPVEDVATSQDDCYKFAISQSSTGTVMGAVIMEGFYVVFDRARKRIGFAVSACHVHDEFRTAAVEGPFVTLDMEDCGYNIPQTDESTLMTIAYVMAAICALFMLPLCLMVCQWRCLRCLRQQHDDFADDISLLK

Structure (SMILES)	% Inhibition (FS) (0.3 μM test compound) [%]	% Inhibition (FS) (1 μM test compound) [%]	% Inhibition (FS) (3 μM test compound) [%]	also measured
CN(C(=O)c1cccc(CN2Cc3cc([S+]([O-])c4ccccc4)ccc3N=C2N)c1)C1CCCCC1 (stereo not drawn) [Compound 549]	<30	30	71	–
NC1=Nc2ccc(Oc3ccccc3)cc2CN1CC1CCN(C(=O)C2CCCCC2)CC1 [Compound 525]	<30	<30	70	–
CN(C(=O)CCC(c1ccc(-c2ccccc2)cc1)N1Cc2cc(Oc3ccccc3)ccc2N=C1N)C1CCCCC1 (stereo not drawn) [Compound 420]	<30	<30	53	–
CCCC(CCCC(=O)NC1CCCCCC1)N1Cc2cc(Oc3ccccc3)ccc2N=C1N (stereo not drawn) [Compound 137]	–	–	82	% Inhibition (FS) (10 μM test compound): 107%
NC1=Nc2ccc(-c3ccccc3Cl)cc2CN1CCNC(=O)C1CCC(C(F)(F)F)CC1 (stereo not drawn) [Compound 690]	–	–	–	% Inhibition (FS) (0.3 μM compound, FS1 substrate): <30%; % Inhibition (FS) (1 μM compound, FS1 substrate): <30%; % Inhibition (FS) (3 μM compound, FS1 substrate): 52%
CC(C)C(=O)NCC(C1CCCCC1)N1Cc2cc(Oc3ccccc3)ccc2N=C1N (stereo not drawn) [Compound 301]	<30	82	106	–
NC(=O)c1ccccc1-c1ccc2c(c1)CN(CCNC(=O)C1CCCCC1)C(N)=N2 [Compound 543]	<30	<30	<30	–
NC1=Nc2ccc(Oc3ccccc3)cc2CN1CCCNC(=O)C1CCC1 [Compound 144]	–	–	39	% Inhibition (FS) (10 μM test compound): 59%
Cc1ccccc1-c1ccc2c(c1)CN(CCNC(=O)CCC(F)(F)F)C(N)=N2 [Compound 678]	–	–	–	% Inhibition (FS) (0.3 μM compound, FS1 substrate): 51%; % Inhibition (FS) (1 μM compound, FS1 substrate): 88%; % Inhibition (FS) (3 μM compound, FS1 substrate): 99%
CN(C(=O)c1cccc(CN2Cc3cc(-c4ccccc4OCc4ccccc4)ccc3N=C2N)c1)C1CCCCC1 [Compound 327]	<30	<30	48	–
CN(C(=O)CC[C@@H](C1CCOCC1)N1Cc2cc(Oc3ccccc3)ccc2N=C1N)[C@H]1CC[C@@H](C(=O)O)CC1 [Compound 745, (S)-Enantiomer of 4-cis-{[4-(2-Amino-6-phenoxy-4H-quinazolin-3-yl)-4-(tetrahydro-pyran-4-yl)-butyryl]-methyl-amino}-cyclohexanecarboxylic acid]	–	–	–	% Inhibition (FS) (0.3 μM compound, FS1 substrate, 0.3 µM): 115%; % Inhibition (FS) (1 μM compound, FS1 substrate, 1 µM): 114%; inhibition at 3 µM (3 μM compound, FS1 substrate, read-out: % Inhibition (FS)): 114%
CCc1ccccc1Sc1ccc2c(c1)CN(Cc1cccc(C(=O)N(C)C3CCCCC3)c1)C(N)=N2 [Compound 406]	<30	<30	50	–
NC1=Nc2ccc(Oc3ccccc3)cc2CN1CCNC(=O)c1ccc(-c2ccccc2)cc1 [Compound 195]	<30	<30	<30	–
NC1=Nc2ccc(Oc3ccccc3)cc2CN1CCCCNC(=O)C1CCCC1 [Compound 116]	–	–	39	% Inhibition (FS) (10 μM test compound): 81%
Cc1ccc(C(CCC(=O)N(C)C2CCCCC2)N2Cc3cc(Oc4ccccc4)ccc3N=C2N)cc1 (stereo not drawn) [Compound 421]	<30	71	111	–
NC1=Nc2ccc(Oc3ccccc3)cc2CN1C1CCN(C(=O)C23CC4CC(CC(C4)C2)C3)CC1 [Compound 524]	<30	<30	44	–
CN(C(=O)c1cccc(CN2Cc3cc(-c4ccc(C(N)=O)cc4)ccc3N=C2N)c1)C1CCCCC1 [Compound 162]	<30	<30	<30	–
CC(=O)Nc1cccc(-c2ccc3c(c2)CN(Cc2cccc(C(=O)N(C)C4CCCCC4)c2)C(N)=N3)c1 [Compound 166]	<30	37	74	–
CN(C(=O)c1ccc(CN2Cc3cc(Oc4ccccc4)ccc3N=C2N)s1)C1CCCCC1 [Compound 503]	<30	<30	90	–

Structure (SMILES)	% Inhibition (FS) (0.3 μM test compound) [%]	% Inhibition (FS) (1 μM test compound) [%]	% Inhibition (FS) (3 μM test compound) [%]	also measured
CN(Cc1cc(-c2ccccc2)on1)C(=O)CC[C@@H](C1CCCCC1)N1Cc2cc(-c3ccccc3F)ccc2N=C1N [Compound 724]	–	–	–	% Inhibition (FS) (0.3 μM compound, FS1 substrate): 38%; % Inhibition (FS) (1 μM compound, FS1 substrate): <30%; % Inhibition (FS) (3 μM compound, FS1 substrate): 65%
CN(C(=O)c1cccc(CN2Cc3cc(Nc4ccc5c(c4)OCO5)ccc3N=C2N)c1)C1CCCCC1 [Compound 441]	<30	29	48	–
NC1=Nc2ccc(-c3ccccc3F)cc2CN1CCNC(=O)CCC(F)(F)F [Compound 680]	–	–	–	% Inhibition (FS) (0.3 μM compound, FS1 substrate): 42%; % Inhibition (FS) (1 μM compound, FS1 substrate): 75%; % Inhibition (FS) (3 μM compound, FS1 substrate): 90%
CC(=O)Nc1ccc(Sc2ccc3c(c2)CN(Cc2cccc(C(=O)N(C)C4CCCCC4)c2)C(N)=N3)cc1 [Compound 417]	<30	<30	78	–
CC1CCC(NC(=O)c2cccc(CN3Cc4cc(Oc5ccccc5)ccc4N=C3N)c2)CC1 (stereo not drawn) [Compound 213]	<30	<30	<30	–
CCCC(CCC)C(=O)N1CCC(CN2Cc3cc(Oc4ccccc4)ccc3N=C2N)CC1 [Compound 526]	<30	36	98	–
NC1=Nc2ccc(Oc3ccccc3)cc2CN1Cc1cccc(C(=O)NC2CCCCC2)c1 [Compound 451]	<30	<30	<30	–
COc1ccccc1-c1ccc2c(c1)CN([C@@H](CCC(=O)N(C)Cc1csc(-c3ccccc3)n1)C1CCCCC1)C(N)=N2 [Compound 716]	–	–	–	% Inhibition (FS) (0.3 μM compound, FS1 substrate): <30%; % Inhibition (FS) (1 μM compound, FS1 substrate): <30%; % Inhibition (FS) (3 μM compound, FS1 substrate): 72%
NC1=Nc2ccc(Oc3ccccc3)cc2CN1C(CC(=O)NC1CCCCC1)C1CCCCC1 (stereo not drawn) [Compound 300]	<30	<30	77	–
CSc1ccc(Nc2ccc3c(c2)CN(Cc2cccc(C(=O)N(C)C4CCCCC4)c2)C(N)=N3)cc1 [Compound 442]	<30	58	101	–
CN(C(=O)c1cccc(CN2Cc3cc(Oc4cccnc4)ccc3N=C2N)c1)C1CCCCC1 [Compound 230]	<30	33	<30	–
CC(=O)N1CCC(C(=O)NCCN2Cc3cc(-c4ccccc4)ccc3N=C2N)CC1 [Compound 702]	–	–	–	% Inhibition (FS) (0.3 μM compound, FS1 substrate): <30%; % Inhibition (FS) (1 μM compound, FS1 substrate): <30%; % Inhibition (FS) (3 μM compound, FS1 substrate): <30%
NC1=Nc2ccc(-c3ccc4ccccc4c3)cc2CN1CCNC(=O)C1CCCC1 [Compound 664]	–	–	–	% Inhibition (FS) (0.3 μM compound, FS1 substrate): <30%; % Inhibition (FS) (1 μM compound, FS1 substrate): <30%; % Inhibition (FS) (3 μM compound, FS1 substrate): <30%
CCCC(CCC(=O)NC1CCCCC1)N1Cc2cc(Oc3ccccc3)ccc2N=C1N (stereo not drawn) [Compound 129]	–	–	113	% Inhibition (FS) (10 μM test compound): 113%
NC1=Nc2ccc(Oc3ccccc3)cc2CN1CCCCNC(=O)C1CCCCC1 [Compound 115]	–	–	40	% Inhibition (FS) (10 μM test compound): 105%
CCCCC(CC)C(=O)NCC(C1CCCCC1)N1Cc2cc(Oc3ccccc3)ccc2N=C1N (stereo not drawn) [Compound 303]	<30	70	109	–
CC(=O)c1ccccc1-c1ccc2c(c1)CN(Cc1cccc(C(=O)N(C)C3CCCCC3)c1)C(N)=N2 [Compound 323]	<30	<30	45	–
COc1ccc(C)cc1Oc1ccc2c(c1)CN(Cc1cccc(C(=O)N(C)C3CCCCC3)c1)C(N)=N2 [Compound 467]	<30	<30	<30	–
COC(=O)C(COCc1ccccc1)N(C)C(=O)CCC(C1CCCCC1)N1Cc2cc(Oc3ccccc3)ccc2N=C1N (stereo not drawn) [Compound 780]	–	–	–	% Inhibition (FS) (0.3 μM compound, FS1 substrate): 69%; % Inhibition (FS) (1 μM compound, FS1 substrate): 97%

The next lines start with results.

% Inhibition (FS) (0.3 μM test compound) [%]	% Inhibition (FS) (1 μM test compound) [%]	% Inhibition (FS) (3 μM test compound) [%]	Structure (SMILES)	also measured
<30	<30	<30	CCCC(=O)NCCN1Cc2cc(-c3cncnc3)ccc2N=C1N [Compound 569]	–
<30	<30	49	CC(C)[C@@H](CNC(=O)C12CC3CC(CC(C3)C1)C2)N1Cc2cc(Oc3ccccc3)ccc2N=C1N [Compound 553]	–
<30	<30	65	NC1=Nc2ccc(-c3cccc(CO)c3)cc2CN1CCNC(=O)Cc1ccccc1 [Compound 599]	–
<30	<30	<30	CC(=O)Nc1ccc(C(=O)NCCN2Cc3cc(-c4ccccc4)ccc3N=C2N)cc1 [Compound 591]	–
<30	30	70	CN(C(=O)CCC(C1CCCCC1)N1Cc2cc(Oc3ccccc3)ccc2N=C1N)C1CCOCC1 (stereo not drawn) [Compound 633]	–
<30	<30	48	CN(C(=O)CCC(C1CCCCC1)N1Cc2cc(Oc3ccccc3)ccc2N=C1N)C1CCC(O)CC1 (stereo not drawn) [Compound 639]	–
43	69	100	CCCC(=O)NCCN1Cc2cc(-c3ccccc3C)ccc2N=C1N [Compound 659]	–
<30	–	–	NC1=Nc2ccc(-c3ccc(F)cc3)cc2CN1CCNC(=O)C1CCCCC1 [Compound 624]	% Inhibition (FS) (1 μM test compound, 1 µM): 38%; % Inhibition (FS) (3 μM test compound, 3 µM): 78%
<30	<30	<30	CC(C)CCC(=O)NCC(Cc1ccc(O)cc1)N1Cc2cc(Oc3ccccc3)ccc2N=C1N (stereo not drawn) [Compound 615]	–
